According to ChEMBL document CHEMBL3881525, “Analogs of dehydrophenylahistins and their therapeutic use” (2007):
Values after ≈ are worked out from the molar mass of the structure shown. Active and inactive are the calls of the source. The rule behind the calls is not given here.

Experiments:
[1] = Cytotoxicity against human HT-29 cells assessed as reduction in cell viability measured after 48 hrs by resazurin dye-based fluorometric analysis; format: functional
[2] = Cytotoxicity against human HT-29 cells assessed as reduction in cell viability measured after 48 hrs by resazurin dye-based fluorometric analysis relative to control; format: functional
Aspergillus fumigatus [3] = test: Antifungal activity against Aspergillus fumigatus isolate 1 measured after 48 hrs by broth dilution method; format: functional; conditions: isolate 1, 48 h
[4] = Antifungal activity against Candida glabrata measured after 48 hrs by broth dilution method; format: functional; conditions: Nakaseomyces glabratus
Aspergillus fumigatus [5] = test: Antifungal activity against Aspergillus fumigatus isolate 2 measured after 48 hrs by broth dilution method; format: functional; conditions: isolate 2, 48 h
[6] = Antifungal activity against Trichophyton rubrum isolate 1 measured after 48 hrs by broth dilution method; format: functional
[7] = Antifungal activity against Trichophyton rubrum isolate 2 measured after 48 hrs by broth dilution method; format: functional
Trichophyton rubrum = test: Fungicidal activity against Trichophyton rubrum isolate 2 measured after 48 hrs by broth dilution method; format: functional; conditions: isolate 2, 48 h
[8] = Antifungal activity against Trichophyton mentagrophytes isolate 1 measured after 48 hrs by broth dilution method; format: functional
[9] = system: Trichophyton mentagrophytes; test: Fungicidal activity against Trichophyton mentagrophytes isolate 1 measured after 48 hrs by broth dilution method; format: functional; conditions: isolate 1, 48 h
[10] = Antifungal activity against Trichophyton mentagrophytes isolate 2 measured after 48 hrs by broth dilution method; format: functional
[11] = Antifungal activity against Epidermophyton floccosum isolate 1 measured after 48 hrs by broth dilution method; format: functional
[12] = Antifungal activity against Epidermophyton floccosum isolate 2 measured after 48 hrs by broth dilution method; format: functional
[13] = Cytotoxicity against human PC3 cells assessed as reduction in cell viability measured after 48 hrs by resazurin dye-based fluorometric analysis relative to control; format: functional, PC-3; design: concentration or dose not given beside the values
[14] = Antiproliferative activity against taxol-resistant human MES-SA/Dx5 cells expressing MDR1 mRNA and P-gp; format: functional, cell-based
MES-SA = test: Ratio of EC50 for taxol-resistant human MES-SA/DX5 cells expressing MDR1 mRNA and P-gp to EC50 for taxol-sensitive human MES-SA cells; format: functional
HL-60 = test: Ratio of EC50 for human mitoxantrone-sensitive HL60 cells to EC50 for human mitoxantrone-resistant HL60/MX2 cells; format: functional
Tubulin (Homo sapiens) [15] = target: T1, Tubulin (Homo sapiens) (UniProt P68371+Q9H4B7+P0DPH7+P68366+Q13509+Q71U36+P04350+Q3ZCM7+P07437+P68363+Q9BQE3+Q6PEY2+Q13885+Q9BVA1+Q9BUF5); test: Induction of microtubule depolymerization in HUVEC at 1.5 to 5 uM by turbidity spectroscopic analysis; format: cell-based
Tubulin (Homo sapiens) [16] = target: T1, Tubulin (Homo sapiens); test: Induction of microtubule depolymerization in HUVEC at 20 nM measured after 30 mins by DAPI-staining based immunofluorescence analysis; format: cell-based
[17] = Antiproliferative activity against human mitoxantrone-sensitive HL60 cells; format: functional, cell-based; conditions: HL-60
[18] = Antiproliferative activity against human mitoxantrone-resistant HL60/MX2 cells; format: functional, cell-based; conditions: HL-60

Compound | EC50 ([1]; Homo sapiens, HT-29, 48 h) [nM] | inhibition (INH) [2] | further results
COc1cccc2cc3c(=O)[nH]/c(=C\c4nc[nH]c4C(C)(C)C)c(=O)n3c12 | 6920 to 7040 | 58 - 100% | –
CCc1ccc(/C=c2\[nH]c(=O)/c(=C/c3nc[nH]c3C(C)(C)C)[nH]c2=O)o1.O=C(O)C(F)(F)F | 2420 | 86% | –
CCC(C)n1ncn(-c2ccc(N3CCN(c4ccc(OCC5COC(Cn6cncn6)(c6ccc(Cl)cc6Cl)O5)cc4)CC3)cc2)c1=O (centres undefined) [ITRACONAZOLE] | – | – | MIC (Aspergillus fumigatus [3]): 1 µg/mL (≈ 1.42 µM)
CC(C)(C)c1ccc(O)c(/C=c2\[nH]c(=O)/c(=C/c3nc[nH]c3C(C)(C)C)[nH]c2=O)c1.O=C(O)C(F)(F)F | – | 80% | –
CC(C)(C)c1ocnc1/C=c1\[nH]c(=O)/c(=C/c2cn(S(=O)(=O)c3ccccc3)c3ccccc23)[nH]c1=O | > 6230 | – | –
C=CC(C)(C)c1[nH]cnc1/C=C1\N=C(OC)C(Cc2ccccc2)N=C1OC (centres undefined) | > 2000 | 4% | –
COc1ccc(/C=c2\[nH]c(=O)/c(=C/c3nc[nH]c3C(C)(C)C)[nH]c2=O)cc1O.O=C(O)C(F)(F)F | – | 66% | –
C=CC(C)(C)c1[nH]cnc1/C=C1\NC(=O)[C@H](Cc2ccccc2)NC1=O | 394 to 1600 | 87% | MIC [4]: > 70 µg/mL; MIC (Aspergillus fumigatus [3]): > 16 µg/mL; MIC (Aspergillus fumigatus [5]): > 16 µg/mL; MIC [6]: > 16 µg/mL; MIC [7]: 0.16 µg/mL (≈ 0.457 µM); MFC (Trichophyton rubrum): > 16 µg/mL; MIC [8]: 16 µg/mL (≈ 45.7 µM); MFC [9]: > 16 µg/mL; MIC [10]: > 16 µg/mL; MIC [11]: > 16 µg/mL; MIC [12]: > 16 µg/mL
Cc1c(F)cccc1/C=c1\[nH]c(=O)/c(=C/c2nc[nH]c2C(C)(C)C)[nH]c1=O.O=C(O)C(F)(F)F | – | 86% | –
COC1=CC(=O)C[C@@H](C)[C@]12Oc1c(Cl)c(OC)cc(OC)c1C2=O [GRISEOFULVIN] | – | – | MIC (Aspergillus fumigatus [5]): 0.5 µg/mL (≈ 1.42 µM); MIC [6]: 0.5 µg/mL (≈ 1.42 µM); MIC [7]: < 0.015 µg/mL; MIC [8]: 1 µg/mL (≈ 2.83 µM); MIC [10]: 2 µg/mL (≈ 5.67 µM); MIC [11]: 2 µg/mL (≈ 5.67 µM)
CC(C)(C)c1[nH]cnc1/C=c1\[nH]c(=O)/c(=C/c2sccc2B(O)O)[nH]c1=O.O=C(O)C(F)(F)F | – | 88% | –
CC(C)(C)c1[nH]cnc1/C=c1\[nH]c(=O)/c(=C/c2cc(Br)cs2)[nH]c1=O.O=C(O)C(F)(F)F | 1710 | 86% | –
Cc1[nH]cnc1/C=c1\[nH]c(=O)/c(=C/c2nc[nH]c2C(C)(C)C)[nH]c1=O.O=C(O)C(F)(F)F.O=C(O)C(F)(F)F | 2350 to 2790 | 84% | –
CC(C)(C)c1[nH]cnc1/C=c1\[nH]c(=O)/c(=C/c2cc(Cl)cc(Cl)c2)[nH]c1=O.O=C(O)C(F)(F)F | – | 87% | –
COc1cc(/C=c2\[nH]c(=O)/c(=C/c3nc[nH]c3C(C)(C)C)[nH]c2=O)cc(OC)c1 | 42 to 45.4 | 87% | Activity [13]: 82%
CC(C)(C)c1[nH]cnc1/C=c1\[nH]c(=O)/c(=C/c2cc(Br)ccc2O)[nH]c1=O.O=C(O)C(F)(F)F | > 2000 | 13% | –
Cc1ccsc1/C=c1\[nH]c(=O)/c(=C/c2nc[nH]c2C(C)(C)C)[nH]c1=O | 44 to 47 | 86% | Activity [13]: 81%
CC(C)(C)c1[nH]cnc1/C=c1\[nH]c(=O)/c(=C/c2ccc3c(c2)OCO3)[nH]c1=O | 82 to 87.3 | 84% | Activity [13]: 95%
CCc1ccc(/C=c2\[nH]c(=O)/c(=C/c3nc[nH]c3C(C)(C)C)[nH]c2=O)s1.O=C(O)C(F)(F)F | – | 87% | –
CC(C)(C)c1[nH]cnc1/C=c1\[nH]c(=O)/c(=C/c2cc(Cl)ccc2O)[nH]c1=O.O=C(O)C(F)(F)F | > 2000 | 37% | –
CC(C)(C)c1[nH]cnc1/C=c1\[nH]c(=O)/c(=C/c2ccc(Cl)s2)[nH]c1=O | 165 to 184 | – | –
C=CC(C)(C)c1[nH]cnc1/C=c1\[nH]c(=O)/c(=C/c2ccc(OC)cc2)[nH]c1=O | 6570 to 6730 | 63% | –
CC(C)(C)c1ocnc1/C=c1\[nH]c(=O)/c(=C/c2c(F)ccc(F)c2F)[nH]c1=O | – | – | IC50 [14]: 27 nM; Ratio EC50 (MES-SA): 1.2; Ratio EC50 (HL-60): 1; Activity (Tubulin (Homo sapiens) [15]): Active; Activity (Tubulin (Homo sapiens) [16]): Active
CSc1ccccc1/C=c1\[nH]c(=O)/c(=C/c2nc[nH]c2C(C)(C)C)[nH]c1=O.O=C(O)C(F)(F)F | – | 87% | –
CC(C)(C)c1[nH]cnc1/C=c1\[nH]c(=O)/c(=C/c2ccccc2N)[nH]c1=O.O=C(O)C(F)(F)F | – | 86% | –
COc1cc(OC)c(/C=c2\[nH]c(=O)/c(=C/c3nc[nH]c3C(C)(C)C)[nH]c2=O)c(OC)c1.O=C(O)C(F)(F)F | > 2000 | 2% | –

Compound | EC50 ([1]; Homo sapiens, HT-29, 48 h) [nM] | inhibition (INH) [2] | further results
C=CC(C)(C)c1[nH]cnc1/C=C1\NC(=O)C(Cc2ccccc2)N=C1OC (centres undefined) | > 2000 | 13% | –
COc1ccc(O)c(/C=c2\[nH]c(=O)/c(=C/c3nc[nH]c3C(C)(C)C)[nH]c2=O)c1.O=C(O)C(F)(F)F | > 2000 | 25% | EC50 [17]: 32 nM; EC50 [18]: 31 nM; Ratio EC50 (HL-60): 1
CC(C)(C)c1[nH]cnc1/C=c1\[nH]c(=O)/c(=C/c2ccc(C#N)cc2)[nH]c1=O.O=C(O)C(F)(F)F | – | 14% | –
CC(C)(C)c1[nH]cnc1/C=c1\[nH]c(=O)/c(=C/c2cccc(OC(F)(F)F)c2)[nH]c1=O.O=C(O)C(F)(F)F | 13 to 14.3 | 87% | –
C=CC(C)(C)c1[nH]cnc1/C=c1\[nH]c(=O)/c(=C\c2ccc(OC)cc2)[nH]c1=O | – | 63% | –
COc1cccc(/C=c2\[nH]c(=O)/c(=C/c3nc[nH]c3C(C)(C)C)[nH]c2=O)c1[N+](=O)[O-].O=C(O)C(F)(F)F | – | 83% | –
CC(C)(C)c1[nH]cnc1/C=c1\[nH]c(=O)/c(=C/c2cc([N+](=O)[O-])ccc2Cl)[nH]c1=O | 51 to 53.4 | 86% | Activity [13]: 100%
COc1ccc(F)c(/C=c2\[nH]c(=O)/c(=C/c3nc[nH]c3C(C)(C)C)[nH]c2=O)c1.O=C(O)C(F)(F)F | 19 to 20.3 | 88% | –
CC(C)(C)c1ocnc1/C=c1\[nH]c(=O)/c(=C/c2c3ccccc3cc3ccccc23)[nH]c1=O | > 6230 | – | –
COc1cc(/C=c2\[nH]c(=O)/c(=C/c3nc[nH]c3C(C)(C)C)[nH]c2=O)ccc1F.O=C(O)C(F)(F)F | – | 85% | –
Cc1ccc(C)c(/C=c2\[nH]c(=O)/c(=C/c3nc[nH]c3C(C)(C)C)[nH]c2=O)c1.O=C(O)C(F)(F)F | – | 87% | –
CC(C)(C)c1[nH]cnc1/C=c1\[nH]c(=O)/c(=C/c2cccc3c2OCO3)[nH]c1=O.O=C(O)C(F)(F)F | – | 82% | EC50 ([1]; ht-29): 477 to 520 nM
Cn1cccc1/C=c1\[nH]c(=O)/c(=C/c2nc[nH]c2C(C)(C)C)[nH]c1=O.O=C(O)C(F)(F)F | 105 to 117 | 88% | –
Cc1ccc(/C=c2\[nH]c(=O)/c(=C/c3nc[nH]c3C(C)(C)C)[nH]c2=O)s1 | 80 to 85.2 | 85 - 97% | –
COc1cccc(C)c1/C=c1\[nH]c(=O)/c(=C/c2nc[nH]c2C(C)(C)C)[nH]c1=O | 517 | – | –
CC(C)(C)c1ccc(O)c(/C=c2\[nH]c(=O)/c(=C/c3ccccc3)[nH]c2=O)c1.O=C(O)C(F)(F)F | > 2000 | 14% | –
Cc1cccc(/C=c2\[nH]c(=O)/c(=C/c3nc[nH]c3C(C)(C)C)[nH]c2=O)c1C.O=C(O)C(F)(F)F | 2.96 to 3 | 87% | –
COc1ccc(/C=c2\[nH]c(=O)/c(=C/c3nc[nH]c3C(C)(C)C)[nH]c2=O)c(O)c1.O=C(O)C(F)(F)F | > 2000 | 8% | –
COc1cccc(/C=c2\[nH]c(=O)/c(=C/c3nc[nH]c3C(C)(C)C)[nH]c2=O)c1N.O=C(O)C(F)(F)F | – | 87% | –
CC(C)(C)c1[nH]cnc1/C=c1\[nH]c(=O)/c(=C/c2cc(Cl)ccc2[N+](=O)[O-])[nH]c1=O.O=C(O)C(F)(F)F | 99.7 to 110 | 86% | EC50 [17]: 28 nM; EC50 [18]: 19 nM; Ratio EC50 (HL-60): 0.7
CC(C)(C)c1[nH]cnc1/C=c1\[nH]c(=O)/c(=C/c2ccc(Br)o2)[nH]c1=O.O=C(O)C(F)(F)F | – | 87% | –
CC(C)(C)c1ocnc1/C=c1\[nH]c(=O)/c(=C/c2cc3ccccc3s2)[nH]c1=O | > 2000 | – | –
COc1cccc(/C=c2\[nH]c(=O)/c(=C/c3nc[nH]c3C(C)(C)C)[nH]c2=O)c1O | 5360 to 5870 | 79 - 86% | –
CC(C)(C)c1[nH]cnc1/C=c1\[nH]c(=O)/c(=C/c2cccc3c2OCO3)[nH]c1=O | – | – | EC50 ([1]; ht-29): 52 nM
COc1ccsc1/C=c1\[nH]c(=O)/c(=C/c2nc[nH]c2C(C)(C)C)[nH]c1=O.O=C(O)C(F)(F)F | – | 88% | –
Cc1cccc(/C=c2\[nH]c(=O)/c(=C/c3nc[nH]c3C(C)(C)C)[nH]c2=O)n1.O=C(O)C(F)(F)F.O=C(O)C(F)(F)F | > 2000 | 37% | –
